Measured values published in article PMC7029871, “Development and validation of a sensitive LC-MS/MS method for the quantitation of IMB-YH-4py5-2H, an antituberculosis candidate, and its application to the pharmacokinetic study” (PLoS ONE, 2020).
Entries after “also recorded” stand apart in the source; their conditions may differ. Like-named read-outs stand apart in the source and are kept apart here.

Legend:
Rat AMs NR8383 cells = test: In vitro uptake study in alveolar macrophages; format: cell-based; conditions: 24 h-exposure in 2 μg/mL
Procedure: Rat AMs NR8383 cells (American Type Culture Collection, Manassas, VA, USA) were grown overnight at 37°C with 5% CO2 in Ham’s F12K medium (Gibco, Grand island, NY, USA) containing 20% fetal bovine serum (FBS, Gibco, Thornton, Australia) in 24-well culture plates (4 × 10^5 cells/well in 1 mL culture medium). After 24 h-exposure to IMB-YH-4py5-2H (2 μg/mL), the culture medium and the subsequent three washes were pooled and processed further for the determination of the extracellular drug concentrations. The cells were then extracted with 0.1 M NaOH to collect the intracellular drug for the LC-MS/MS analysis. All experiments were done in triplicate. The intracellular/extracellular drug concentration ratios were then calculated.

[1] = Stability of QC samples in rat plasma; format: in vitro ADME; conditions: for %Theoretical, Autosampler: extracted plasma QC; for %Theoretical, Long-term / %Theoretical, 24 h ambient / %Theoretical, freeze-thaw: rat plasma; for %Theoretical, Long-term: 2 weeks at -20°C
Procedure: Six replicates of the QC samples at low, medium and high concentrations subjected to the conditions below were evaluated for the stability of IMB-4py5-2H in rat plasma. Short-term stability was assessed by the analysis of the QCs kept at room temperature for 24 h, which exceeded the routine preparation time of the samples. Long-term stability was determined by assaying the QCs after storage for 2 weeks at −20°C. Freeze–thaw stability was investigated after three freeze (−20°C)–thaw (room temperature) cycles. Post-preparative stability was assessed by analyzing the extracted QC samples kept in autosampler at 4°C for 24 h.

[2] = compared with YH-8; method and reference not given; cited from earlier work
[3] = Pharmacokinetic study in rats, single oral dose; format: in vivo, Sprague-Dawley rats; conditions: for AUC(0-inf) / CL/F / MRT / Tmax / AUC(0-t) / Vd/F / half-life / Cmax: both sexes, Sprague-Dawley; for AUC(0-inf) / CL/F / MRT / Tmax / AUC(0-t) / Vd/F / half-life: plasma, rat; for AUC(0-t): read-out: AUC0-60; for Vd/F: read-out: Vz/F; for half-life: po; for Cmax: rat plasma
Procedure: A total of 18 adult SD rats were randomly divided into three dosing groups (half male and half female). IMB-YH-4py5-2H suspensions were freshly prepared in 1% (w/v) sodium carboxymethyl cellulose (CMC-Na). The rats were fasted with free access to water for 12 h prior to the oral administration of IMB-YH-4py5-2H at doses of 50, 100 or 200 mg/kg and fasted for another 2 h after administration. Blood samples of 0.2 mL were collected via the post-orbital venous plexus vein at 0.033, 0.083, 0.167, 0.333, 0.5, 0.75, 1, 1.5, 2, 4, 6, 8, 12, 24, 36, 48, and 60 h post dosing into a heparinized tube. Plasma samples, obtained by centrifuging blood at 2300 × g for 15 min at 4°C, were stored at −20°C until analysis.
The pharmacokinetic parameters of IMB-YH-4py5-2H were calculated by WinNonlin (Version 6.1, Pharsight Corp., Mountain View, CA, USA) using a non-compartmental model. Data were expressed as the mean ± standard deviation (S.D.).

[4] = tested on: intracellular M. tuberculosis H37Rv; test: Intracellular activity assay in infected macrophages; format: cell-based, Mycobacterium tuberculosis; conditions: for Log10CFU: three-day incubation, infected J744 macrophages, untreated 6.47±0.04
[5] = extracellular concentration of 2 μg/mL

CN(C)C(=O)/C=C/C(=O)c1ccc(-c2ccncc2)cc1.Cl [IMB-YH-4py5-2H, (E)-N,N-dimethyl-4-oxo-4-(4-(pyridin-4-yl)phenyl)but-2-enamide hydrochloride]
intracellular to extracellular concentration ratio (I/E ratio) (Rat AMs NR8383 cells): 133.4±12.5 | %Theoretical, Autosampler ([1]; autosampler 4°C 24 h, nominal 2.5 ng/mL): 100.11 ± 1.20% | %Theoretical, Autosampler ([1]; autosampler 4°C 24 h, nominal 20 ng/mL): 103.26 ± 6.07% | %Theoretical, Autosampler ([1]; autosampler 4°C 24 h, nominal 80 ng/mL): 97.85 ± 4.96% | %Theoretical, Long-term ([1]; nominal 2.5 ng/mL): 92.33 ± 4.21% | %Theoretical, Long-term ([1]; nominal 20 ng/mL): 91.65 ± 3.91% | %Theoretical, Long-term ([1]; nominal 80 ng/mL): 94.98 ± 7.26% | %Theoretical, 24 h ambient ([1]; room temperature 24 h, nominal 2.5 ng/mL): 94.35 ± 3.65% | %Theoretical, 24 h ambient ([1]; room temperature 24 h, nominal 20 ng/mL): 91.96± 5.79% | %Theoretical, 24 h ambient ([1]; room temperature 24 h, nominal 80 ng/mL): 103.77 ±2.51% | %Theoretical, freeze-thaw ([1]; three freeze-thaw cycles, nominal 2.5 ng/mL): 90.11 ± 6.19% | %Theoretical, freeze-thaw ([1]; three freeze-thaw cycles, nominal 20 ng/mL): 88.79 ± 3.27% | %Theoretical, freeze-thaw ([1]; three freeze-thaw cycles, nominal 80 ng/mL): 94.17 ± 5.10% | stability in rat plasma ([1]; room temperature 24 h, -20°C 2 weeks, three freeze-thaw cycles, autosampler 4°C 24 h): stable | water solubility [2]: better water solubility; also recorded: improved water solubility | AUC(0-inf) ([3]; single oral dose 50 mg/kg): 1440 ± 370 ng·h/mL | CL/F ([3]; single oral dose 50 mg/kg): 613 mL/min/kg | MRT ([3]; single oral dose 50 mg/kg): 7.63 ± 1.58 h | Tmax ([3]; single oral dose 50 mg/kg): 0.28 ± 0.08 h | AUC(0-t) ([3]; single oral dose 50 mg/kg): 1400 ± 367 ng·h/mL | Vd/F ([3]; single oral dose 50 mg/kg): 379 ± 100 L/kg | AUC(0-inf) ([3]; single oral dose 100 mg/kg): 2850 ± 430 ng·h/mL | CL/F ([3]; single oral dose 100 mg/kg): 610 mL/min/kg | MRT ([3]; single oral dose 100 mg/kg): 7.7 ± 1.43 h | Tmax ([3]; single oral dose 100 mg/kg): 0.44 ± 0.09 h | AUC(0-t) ([3]; single oral dose 100 mg/kg): 2840 ± 425 ng·h/mL | Vd/F ([3]; single oral dose 100 mg/kg): 336 ± 74 L/kg | AUC(0-inf) ([3]; single oral dose 200 mg/kg): 5730 ± 664 ng·h/mL | CL/F ([3]; single oral dose 200 mg/kg): 589 mL/min/kg | MRT ([3]; single oral dose 200 mg/kg): 10.7 ± 0.85 h | Tmax ([3]; single oral dose 200 mg/kg): 0.33 h | AUC(0-t) ([3]; single oral dose 200 mg/kg): 5710 ± 659 ng·h/mL | Vd/F ([3]; single oral dose 200 mg/kg): 394 ± 58 L/kg | half-life ([3]; 50 mg/kg, single oral dose 50 mg/kg, read-out: t1/2 (converted)): 7.24 ± 1.61 h | half-life ([3]; 100 mg/kg, single oral dose 100 mg/kg, read-out: t1/2 (converted)): 6.37 ± 0.93 h | half-life ([3]; 200 mg/kg, oral, all three dosing groups (50, 100, 200 mg/kg), read-out: half-life (converted)): ~7 h | half-life ([3]; 200 mg/kg, single oral dose 200 mg/kg, read-out: t1/2 (converted)): 7.71 ± 0.41 h | Cmax ([3]; single oral dose 50 mg/kg): 367 ± 23 ng/mL | Cmax ([3]; single oral dose 100 mg/kg): 586 ± 31.2 ng/mL | Cmax ([3]; single oral dose 200 mg/kg): 1300 ± 194 ng/mL | AUC relative to that of YH-8 ([3]; following the same oral dose, YH-8 data ref 20): approximately 2.5 fold | Log10CFU ([4]; 0.5 μg/mL): 6.44±0.02 Log10CFU | Log10CFU ([4]; 1 μg/mL): 6.40±0.05 Log10CFU | Log10CFU ([4]; 2 μg/mL): 6.02±0.11 Log10CFU | bacterial density reduction on intracellular M. tuberculosis [4, 5]: ~70% | reduction on intracellular M. tuberculosis [4, 5]: 0.45 log10CFU
